According to article PMC12383646, “Identification of Two Critical Contact Residues in a Pathogenic Epitope from Tetranectin for Monoclonal Antibody Binding and Preparation of Single-Chain Variable Fragments” (Biomolecules, 2025):

Experiments:
[1] = system: 12F1 mAb; experiment: Indirect ELISA (iELISA) of 12F1 mAb on coated P5-5-BSA and P5-5 mutant-BSA; format: binding, mouse; conditions: peptide-BSA conjugate coated at 10 µg/mL; 12F1 mAb 1:2000; compared with WT P5-5 and negative control BSA; six repeated experiments (Figure 4)
Procedure: The P5-5 and mutants were conjugated to BSA by the EDC conjugating method. Firstly, the P5-5 and other 9 mutant peptide solutions (4 mg/mL in 0.1 M MES buffer, pH 4.7) were separately mixed with BSA solution (10 mg/mL in 0.1 M MES buffer, pH 4.7). Then, the reaction mixtures were all supplemented with 100 μL of EDC solution (10 mg/mL in deionized water) and incubated at 25 °C for 2 h to facilitate conjugation. The haptens were coupled to BSA at a molar ratio of 10:1 [14]. After a two-hour reaction, the resulting mixtures were subjected to dialysis against 0.01 M phosphate-buffered saline (PBS, pH 7.4) for 48 h. The final products were then stored at −20 °C for the following applications. The P5-5 and mutant conjugates were examined using native gel electrophoresis, and the concentration of the complete antigen was determined using the BCA protein assay kit.
Indirect ELISA (iELISA): To identify the key binding epitopes of the prepared mAb to the P5-5 epitope, P5-5-BSA, and P5-5 mutant-BSA, the antigens were coated onto 96-well plates at a concentration of 10 µg/mL [15]. Subsequently, purified 12F1 mAb diluted at 1:2000 in blocking buffer was added to the wells after blocking and washing. Following another washing step, goat anti-mouse IgG-HRP at a 1:5000 dilution in blocking buffer was added and incubated at 37 °C for 1 h. To commence color development, 100 μL of 3,3,5,5-Tetramethylbenzidine (TMB) solution was added to each well, followed by 100 μL of 2 M H2SO4. The absorbance at 450 nm was measured using a microplate reader.

[2] = system: 12F1 mAb; experiment: Indirect competitive ELISA (ic-ELISA) of P5-5 and mutant peptides against 12F1 mAb; format: binding, mouse; conditions: coating P5-5-OVA 5 μg/mL; free peptide competitor 0.61 ng/mL-20 μg/mL; pre-mixed with 12F1 mAb 37 °C 30 min; compared with WT P5-5 (Figure 5)
Procedure: Indirect competitive ELISA (ic-ELISA): the inhibition ability of 12F1 mAb against P5-5 and its mutants was assessed through icELISA [16]. A coating antigen P5-5-OVA solution at a concentration of 5 μg/mL was prepared and dispensed (100 μL) into each well of a 96-well ELISA plate. The plates were then left to incubate at 4 °C overnight. Following washing, 5% (w/v) PBSM was added to each well and incubated at 37 °C for 2 h. The synthesized peptides of P5-5 and its variants were prepared as 1 mg/mL stock solution (dissolved in 0.01M PBS, pH 7.4). These peptides were then serially diluted in PBSM to concentrations of 20 μg/mL, 10 μg/mL, 5 μg/mL, 2.5 μg/mL, 1.25 μg/mL, 625 ng/mL, 312.5 ng/mL, 156.25 ng/mL, 78.13 ng/mL, 39.06 ng/mL, 19.53 ng/mL, 9.77 ng/mL, 4.88 ng/mL, 2.44 ng/mL, 1.22 ng/mL, and 0.61 ng/mL for the competitor in the ic-ELISA assay. Subsequently, 12F1 mAb was mixed thoroughly with the diluted solutions of P5-5 and its mutants at equal volume at 37 °C for 30 min incubation and reaction. Following this, each well was impressed by 100 μL of the mixture, which was then incubated at 37 °C for one hour. The succeeding stages, which included the addition of HRP-goat anti-mouse serum, TMB substrate solution, and stop solution, were carried out as described earlier. The measurement of the OD value was then taken under 450 nm. The IC50 values of the 12F1 monoclonal antibody against synthesized P5-5 and nine other mutant peptides were determined using the four-parameter logistic equations in Prism 9.0 GraphPad software (version 9.0 GraphPad Software), following the established methodology.

Row | Sequence | binding activity of 12F1 mAb (indirect ELISA, OD 450 nm) [1] | antigen inhibitory capability / antibody binding in ic-ELISA [2]
1 | NDALYEYARQ [L8A, P5-5 mutant, position 8 (Leu) mutated to alanine] | significantly reduced to levels similar to the negative control | entirely lost their ability to bind antibodies
2 | NDAAYEYLRQ [L4A, P5-5 mutant, position 4 (Leu) mutated to alanine] | significantly reduced to levels similar to the negative control | entirely lost their ability to bind antibodies
3 | NDALYEALRQ [Y7A, P5-5 mutant, position 7 (Tyr) mutated to alanine] | weak binding signals | significantly reduced compared to the WT P5-5

More lines, main results first:

Row | binding activity of 12F1 mAb (indirect ELISA, OD 450 nm) [1] | Sequence | antigen inhibitory capability / antibody binding in ic-ELISA [2]
4 | weak binding signals | NDALAEYLRQ [Y5A, P5-5 mutant, position 5 (Tyr) mutated to alanine] | significantly reduced compared to the WT P5-5
5 | weak binding signals | NAALYEYLRQ [DA2, P5-5 mutant, position 2 (Asp) mutated to alanine] | significantly reduced compared to the WT P5-5
6 | weak binding signals | NDALYAYLRQ [E6A, P5-5 mutant, position 6 (Glu) mutated to alanine] | significantly reduced compared to the WT P5-5
